# Data: patent US4048299A, “Anticaries confectionaries and oral health products” (William Wrigley, Jr. Co., priority 1970, dated 1977)
# Tests used:
# [1] = tested on: Lactobacillus casei ATCC 4646; experiment: Acid production inhibition by aldehydes in product vehicles, broth-tube technique; assay type: cell-based; details: 1 to 5 percent aldehyde
# Experimental: (§1) Other in vitro evaluations utilized a broth tube analysis of representative anticaries aldehydes incorporated in the vehicles of this invention against cultures of acid producing microorganisms normally present in the mouth. Standard laboratory procedures were utilized throughout to evaluate the acid production inhibition and growth inhibition over the incubation time of up to 24 hours.
# (§2) (a)Measured by broth-tube technique.
# (§3) In formulating Tables XIII - XIX representative aldehydes having anticaries activity were selected from those tested as summarized in Tables I - XII and incorporated in seven representative types of products. The products included dextrose and sucrose syrups, obtained commercially in food grades, and compressed candy, hard candy, mouthwash, toothpaste and toothpowder. The five latter products also employed food grade and reagent grade ingredients. These products were formulated by well-known and representative recipes for each type of product. The products were formed in batches of approximately 1 pound or 1 liter and contained all their normal constitutents. Aliquots of each products were blended with one of each of the representative aldehydes selected except in the case of hard candy.
# (§4) Aliquots of the aldehyde incorporating sugar syrups, confectioneries, and mouthwash formulations were added directly to assay flasks and mixed or dissolved as required. Aqueous extracts of the aldehyde incorporated in toothpaste and toothpowder were prepared and aliquots of the filtrate were added to the assay flasks.
# (§5) The assay flasks contained the necessary components for a normal growth response from the organisms employed, Lactobacillus casei ATCC 4646, originally a human oral isolate, Streptococcus spp. K1-R, human caries isolate, and a mixed oral microbial population obtained fresh from saliva on the morning prior to the initiation of each assay incubation period. The assay flask medium was dissolved in distilled water in which was added an equal volume of filter sterilized human saliva to yield a 50 percent saliva-medium combination. The medium contained all normal ingredients such as yeast extract, proteose peptone number 3 (a proprietary formula of Difco Laboratories, Detroit, Michigan) monopotassium phosphate, Tween 80 (polyoxethylene sorbitan monoleate) and water, except a carbon source. This was supplied by the aliquot of the sucrose syrup, dextrose syrup, sucrose in the compressed candy tablet and sucrose in the hard candy product. In addition, an aliquot of sucrose solution concentrate was added to the assay flask as a carbon source for evaluation of mouthwash, toothpaste, and toothpowder vehicles.
# (§6) The lower aldehydes such as glycolaldehyde, crystalline dimer; pyruvaldehyde, aqueous syrup; d,1-glyceraldehyde solution and crystalline dimer; and glutaraldehyde, employed as a 50 percent aqueous solution, are water soluble and were employed directly either as powders or aqueous solutions. The C8 to C12, longer chain aliphatic aldehydes, of which decyl and dodecyl (lauric) were selected as representative, are oil soluble and are prepared and added to the products as emulsions with four parts of Tween 20, polyoxethylene sorbitan monolaurate. The aldehyde concentrations in the products were randomly chosen between 1 to 5 percent by weight. Limits for the concentrations were selected to coincide with the data presented in Tables I - XII in order to verify that the anticaries activity of the aldehydes in the product vehicles tested was equivalent to the activity previously established for the aldehydes alone.
# [2] = tested on: Mixed human oral microorganisms; experiment: as above; assay type: cell-based; details: 1 to 5 percent aldehyde
# Experimental: as §1, §2, §3, §4, §5, §6
# Streptococcus spp. KI-R [3] = experiment: as above; assay type: cell-based; details: 1 to 5 percent aldehyde
# Experimental: as §1, §2, §3, §4, §5, §6
# Streptococcus spp. KI-R [4] = experiment: Growth inhibition by aldehydes in product vehicles, pour-plate technique; assay type: cell-based; details: 1 to 5 percent aldehyde
# Experimental: as §1
# (b)Measured by pour-plate technique.
# as §3, §4, §5, §6
# [5] = In vivo caries evaluation, laboratory animals (summary); details: one percent level in diet
# Excerpt: (§7) Standard laboratory techniques were used to complie the data presented. In each case the aldehyde was incorporated into each specimen's food in a one percent, by weight, quantity, over a period of several weeks. In all cases, caries reduction was noted.
# (§8) The aldehydes tested in vivo were pyruvaldehyde, d,1-glyceraldehyde, crystalline dimer, glycolaldehyde, octanaldehyde, nonanaldehyde, decanaldehyde, undecylenic aldehyde, and lauric aldehyde. The polyaldehydes tested were dialdehyde starch, dialdehyde starch 50 percent oxidized, dialdehyde starch 90 percent oxidized, and dialdehyde galactomannan gum.
# Lactobacillus casei = experiment: Acid production inhibition, broth-tube technique; details: single agent
# Excerpt: The data was compiled through well-known broth tube analysis techniques.
# [6] = In vivo caries evaluation, Osborne-Mendel strain 1 rat; set-up: species or system rat (Osborne-Mendel strain 1); Caries Score, Mean Incidence / Caries Score, Mean Extent: scale not given here; details: Table II, 90 days
# Excerpt: as §7, §8
# ^(a) Agents were incorporated in the diet at a 1 percent level.
# [7] = in compressed candy tablet, 2 h incubation
# [8] = in compressed candy tablet, 5 h incubation
# [9] = in compressed candy tablet, 24 h incubation
# [10] = in dextrose syrup, 2 h incubation
# [11] = in dextrose syrup, 5 h incubation
# [12] = in dextrose syrup, 24 h incubation
# [13] = in sucrose syrup, 2 h incubation
# [14] = in sucrose syrup, 5 h incubation
# [15] = in sucrose syrup, 24 h incubation
# [16] = in tooth powder (aqueous extract), 2 h incubation
# [17] = in tooth powder (aqueous extract), 5 h incubation
# [18] = in tooth powder (aqueous extract), 24 h incubation
# [19] = in toothpaste (aqueous extract), 2 h incubation
# [20] = in toothpaste (aqueous extract), 5 h incubation
# [21] = in toothpaste (aqueous extract), 24 h incubation
# [22] = Student's test, 95 percent confidence limit
structure (smiles),measurement,setting,value
"O=C[C@H](O)CO (racemic) [d,1-Glyceraldehyde]",Acid Production Inhibition,[1]; [7],0 Per Cent
same,Acid Production Inhibition,[1]; [8],0 Per Cent
same,Acid Production Inhibition,[1]; [9],73 Per Cent
same,Acid Production Inhibition,[1]; [10],57 Per Cent
same,Acid Production Inhibition,[1]; [11],33 Per Cent
same,Acid Production Inhibition,[1]; [12],89 Per Cent
same,Acid Production Inhibition,[1]; [13],0 Per cent
same,Acid Production Inhibition,[1]; [14],30 Per cent
same,Acid Production Inhibition,[1]; [15],79 Per cent
same,Acid Production Inhibition,[1]; [16],0 Per cent
same,Acid Production Inhibition,[1]; [17],0 Per cent
same,Acid Production Inhibition,[1]; [18],84 Per cent
same,Acid Production Inhibition,[1]; [19],0 Per cent
same,Acid Production Inhibition,[1]; [20],0 Per cent
same,Acid Production Inhibition,[1]; [21],0 Per cent
same,Acid Production Inhibition,[2]; [7],0 Per Cent
same,Acid Production Inhibition,[2]; [8],91 Per Cent
same,Acid Production Inhibition,[2]; [9],87 Per Cent
same,Acid Production Inhibition,[2]; [10],8 Per Cent
same,Acid Production Inhibition,[2]; [11],90 Per Cent
same,Acid Production Inhibition,[2]; [12],77 Per Cent
same,Acid Production Inhibition,"[2]; in mouthwash, 2 h incubation",0 Per cent
same,Acid Production Inhibition,"[2]; in mouthwash, 5 h incubation",91 Per cent
same,Acid Production Inhibition,"[2]; in mouthwash, 24 h incubation",39 Per cent
same,Acid Production Inhibition,[2]; [13],72 Per cent
same,Acid Production Inhibition,[2]; [14],93 Per cent
same,Acid Production Inhibition,[2]; [15],16 Per cent
same,Acid Production Inhibition,[2]; [16],0 Per cent
same,Acid Production Inhibition,[2]; [17],48 Per cent
same,Acid Production Inhibition,[2]; [18],18 Per cent
same,Acid Production Inhibition,[2]; [19],0 Per cent
same,Acid Production Inhibition,[2]; [20],0 Per cent
same,Acid Production Inhibition,[2]; [21],0 Per cent
same,Acid Production Inhibition,Streptococcus spp. KI-R [3]; [7],0 Per Cent
same,Acid Production Inhibition,Streptococcus spp. KI-R [3]; [8],25 Per Cent
same,Acid Production Inhibition,Streptococcus spp. KI-R [3]; [9],84 Per Cent
same,Acid Production Inhibition,Streptococcus spp. KI-R [3]; [10],48 Per Cent
same,Acid Production Inhibition,Streptococcus spp. KI-R [3]; [11],86 Per Cent
same,Acid Production Inhibition,Streptococcus spp. KI-R [3]; [12],82 Per Cent
same,Acid Production Inhibition,"Streptococcus spp. KI-R [3]; in mouthwash, 2 h incubation",0 Per cent
same,Acid Production Inhibition,"Streptococcus spp. KI-R [3]; in mouthwash, 5 h incubation",0 Per cent
same,Acid Production Inhibition,"Streptococcus spp. KI-R [3]; in mouthwash, 24 h incubation",86 Per cent
same,Acid Production Inhibition,Streptococcus spp. KI-R [3]; [13],69 Per cent
same,Acid Production Inhibition,Streptococcus spp. KI-R [3]; [14],88 Per cent
same,Acid Production Inhibition,Streptococcus spp. KI-R [3]; [15],86 Per cent
same,Acid Production Inhibition,Streptococcus spp. KI-R [3]; [16],0 Per cent
same,Acid Production Inhibition,Streptococcus spp. KI-R [3]; [17],0 Per cent
same,Acid Production Inhibition,Streptococcus spp. KI-R [3]; [18],0 Per cent
same,Acid Production Inhibition,Streptococcus spp. KI-R [3]; [19],0 Per cent
same,Acid Production Inhibition,Streptococcus spp. KI-R [3]; [20],0 Per cent
same,Acid Production Inhibition,Streptococcus spp. KI-R [3]; [21],0 Per cent
same,Growth Inhibition,Streptococcus spp. KI-R [4]; [7],0 Per Cent
same,Growth Inhibition,Streptococcus spp. KI-R [4]; [8],N.S.
same,Growth Inhibition,Streptococcus spp. KI-R [4]; [9],N.S.
same,Growth Inhibition,Streptococcus spp. KI-R [4]; [10],98 Per Cent
same,Growth Inhibition,Streptococcus spp. KI-R [4]; [11],> 99.99 Per Cent
same,Growth Inhibition,Streptococcus spp. KI-R [4]; [12],> 100 Per Cent
same,Growth Inhibition,"Streptococcus spp. KI-R [4]; in mouthwash, 2 h incubation",> 99.99 Per cent
same,Growth Inhibition,"Streptococcus spp. KI-R [4]; in mouthwash, 5 h incubation",99.99 Per cent
same,Growth Inhibition,"Streptococcus spp. KI-R [4]; in mouthwash, 24 h incubation",100 Per cent
same,Growth Inhibition,Streptococcus spp. KI-R [4]; [13],90 Per cent
same,Growth Inhibition,Streptococcus spp. KI-R [4]; [14],90 Per cent
same,Growth Inhibition,Streptococcus spp. KI-R [4]; [15],99 Per cent
same,Growth Inhibition,Streptococcus spp. KI-R [4]; [16],99.88 Per cent
same,Growth Inhibition,Streptococcus spp. KI-R [4]; [17],99.99 Per cent
same,Growth Inhibition,Streptococcus spp. KI-R [4]; [18],100 Per cent
same,Growth Inhibition,Streptococcus spp. KI-R [4]; [19],N.S.
same,Growth Inhibition,Streptococcus spp. KI-R [4]; [20],N.S.
same,Growth Inhibition,Streptococcus spp. KI-R [4]; [21],0 Per cent
same,Anticaries effect in laboratory animals,[5],significant anticaries effects
same,Acid Production Inhibition,Lactobacillus casei; 0.02 percent,11%
same,Acid Production Inhibition,Lactobacillus casei; 0.03 percent,17%
same,Acid Production Inhibition,Lactobacillus casei; 0.04 percent,22%
CCCCCCCCCC=O [Decanaldehyde],"Caries Score, Mean Incidence","[6]; 1 percent in diet, RCD control 19.0 (octan-), 14.1 (nonan-), 17.6 (decan-), 22.3 (undecylenic)",10.4
same,"Caries Score, Mean Extent","[6]; 1 percent in diet, RCD control 49.6 (octan-), 34.3 (nonan-), 46.0 (decan-), 54.6 (undecylenic)",24.1
same,"Caries Extent Reduction, statistical evaluation",[6]; [22],Significant
same,"Caries Incidence Reduction, statistical evaluation",[6]; [22],Significant
same,Acid Production Inhibition,[1]; [7],0 Per Cent
same,Acid Production Inhibition,[1]; [8],67 Per Cent
same,Acid Production Inhibition,[1]; [9],97 Per Cent
same,Acid Production Inhibition,[1]; [10],67 Per Cent
same,Acid Production Inhibition,[1]; [11],77 Per Cent
same,Acid Production Inhibition,[1]; [12],96 Per Cent
same,Acid Production Inhibition,[1]; [13],0 Per cent
same,Acid Production Inhibition,[1]; [14],95 Per cent
same,Acid Production Inhibition,[1]; [15],99 Per cent
same,Acid Production Inhibition,[1]; [19],80 Per cent
same,Acid Production Inhibition,[1]; [20],80 Per cent
same,Acid Production Inhibition,[1]; [21],83 Per cent
same,Acid Production Inhibition,[2]; [7],100 Per Cent
same,Acid Production Inhibition,[2]; [8],100 Per Cent
same,Acid Production Inhibition,[2]; [9],19 Per Cent
same,Acid Production Inhibition,[2]; [10],0 Per Cent
same,Acid Production Inhibition,[2]; [11],95 Per Cent
same,Acid Production Inhibition,[2]; [12],91 Per Cent
same,Acid Production Inhibition,[2]; [13],78 Per cent
same,Acid Production Inhibition,[2]; [14],94 Per cent
same,Acid Production Inhibition,[2]; [15],95 Per cent
same,Acid Production Inhibition,[2]; [19],0 Per cent
same,Acid Production Inhibition,[2]; [20],0 Per cent
same,Acid Production Inhibition,[2]; [21],0 Per cent
same,Acid Production Inhibition,Streptococcus spp. KI-R [3]; [7],50 Per Cent
same,Acid Production Inhibition,Streptococcus spp. KI-R [3]; [8],85 Per Cent
same,Acid Production Inhibition,Streptococcus spp. KI-R [3]; [9],98 Per Cent
same,Acid Production Inhibition,Streptococcus spp. KI-R [3]; [10],35 Per Cent
same,Acid Production Inhibition,Streptococcus spp. KI-R [3]; [11],91 Per Cent
same,Acid Production Inhibition,Streptococcus spp. KI-R [3]; [12],89 Per Cent
same,Acid Production Inhibition,Streptococcus spp. KI-R [3]; [13],75 Per cent
same,Acid Production Inhibition,Streptococcus spp. KI-R [3]; [14],98 Per cent
same,Acid Production Inhibition,Streptococcus spp. KI-R [3]; [15],100 Per cent
same,Acid Production Inhibition,Streptococcus spp. KI-R [3]; [19],40 Per cent
same,Acid Production Inhibition,Streptococcus spp. KI-R [3]; [20],100 Per cent
same,Acid Production Inhibition,Streptococcus spp. KI-R [3]; [21],67 Per cent
same,Growth Inhibition,Streptococcus spp. KI-R [4]; [7],N.S.
same,Growth Inhibition,Streptococcus spp. KI-R [4]; [8],N.S.
same,Growth Inhibition,Streptococcus spp. KI-R [4]; [9],N.S.
same,Growth Inhibition,Streptococcus spp. KI-R [4]; [10],100 Per Cent
same,Growth Inhibition,Streptococcus spp. KI-R [4]; [11],100 Per Cent
same,Growth Inhibition,Streptococcus spp. KI-R [4]; [12],100 Per Cent
same,Growth Inhibition,Streptococcus spp. KI-R [4]; [13],> 99.99 Per cent
same,Growth Inhibition,Streptococcus spp. KI-R [4]; [14],> 99.99 Per cent
same,Growth Inhibition,Streptococcus spp. KI-R [4]; [15],N.S.
same,Growth Inhibition,Streptococcus spp. KI-R [4]; [19],0 Per cent
same,Growth Inhibition,Streptococcus spp. KI-R [4]; [20],N.S.
same,Growth Inhibition,Streptococcus spp. KI-R [4]; [21],N.S.
same,Anticaries effect in laboratory animals,[5],significant anticaries activity
